In US8580321B2, “Method for reducing the effects of chemotherapy using flagellin related polypeptides” (priority 2003, dated 2013):

Columns and labels:
NF-κB [1] = assay: EMSA of NF-κB translocation / DNA binding in A549 cells; settings: for NF-κB Stimulation / level of NF-κB translocation, fragments versus flagellin: A549 cells; for NF-κB Stimulation: 1 μg/ml, 45 min, EMSA of whole cell extracts; for level of NF-κB translocation, fragments versus flagellin / inducing NF-κB translocation: EMSA; for inducing NF-κB translocation: nuclear extracts of treated A549 lung cancer cells
NF-κB [2] = assay: EMSA of NF-κB binding activity in HT29 human colon cancer cells; type: cell-based; settings: fragments 1 mg/ml, 15 min
Experimental: We further minimized the AA′ flagellin fragment by producing additional fragments through stepwise removal of peptide fragments from its N-terminal half (Table 2). […] NF-κB binding activity in HT29 cells was stimulated with TNFa (10 ng/ml), or flagellin fragments (1 mg/ml) for 15 min.

[3] = test system: mice treated with total body gamma radiation; assay: Mouse survival after total body gamma irradiation (radioprotection); type: in vivo; settings: s.c. 5.0 μg/mouse (0.2 mg/kg)
Experimental: Whole body irradiation of mice with 15 Gy gamma radiation caused death within 8 days from GI syndrome providing a conventional model of radiation induced damage of GI tract. To test whether flagellin was capable of protecting GI epithelium from IR, we tested the effect of i.v.-injected flagellin on the dynamics of mouse lethality after 15 Gy of radiation. […] Irradiation was done 4 hours post treatment. As expected, control irradiated mice (that received PBS i.v.) died between 5 and 8 days post-treatment. […] Intravenous, intraperitoneal and subcutaneous delivery of 0.2 mg/kg of flagellin followed by 13 Gy irradiation afforded similar degree of protection, leading to 85-90% 30-day survival of mice (data not shown). While not being bound by theory, flagellin may be a radioprotectant due to its activation of NF-κB, which presumably acts as an inhibitor of apoptotic death.
The experiments were done similarly to the above-described ones (FIGS. 14 and 15), however, instead of 15Gy, mice received 10Gy, the dose that caused 100% killing in control group by day 13 (FIG. 6).
In order to further estimate the dependence of radioprotective activity of flagellin on the time of treatment, mice were injected at several time points relative to the moment of gamma-irradiation. Experiments were performed essentially as explained above, using intraperitoneal injection of 5 μg/mouse (0.2 mg/kg) of full-length flagellin or, for control mice, 5 μg/mouse (0.2 mg/kg) of bacterial RNA polymerase. The experiments were performed using the NIH-Swiss mouse strain. […] Only −1 h graph is shown for clarity, however, both timepoints (−1 and −2 h) provide similar degree and dynamics of survival.
We next obtained an estimate of radiation dose-dependent protection for flagellin. As shown above (FIG. 7), treatment with flagellin was sufficient for 100% protection against 10 Gy gamma-irradiation (this dose causes death from hematopoietic syndrome) and 90% 30-day survival at 13 Gy (both hematopoietic and GI syndromes). Experiments were performed as described above, using flagellin 5 μg/mouse (0.2 mg/kg), intraperitoneally injected 1 h before irradiation.
As shown above, full-length flagellin provides protection from both hematopoietic and gastrointestinal syndromes. The radioprotective potential of flagellin fragments was similarly tested after gamma-irradiation with 11 Gy (dose that induces hematopoietic syndrome-associated mortality in mice) or 14 Gy (dose that causes death from GI syndrome). Mice (10 animals per group) were injected subcutaneously with 5.0 μg/mouse (0.2 mg/kg) of flagellin or its fragments, AA′ or BB′, and gamma-irradiated 1 hour later.
In order to explore the limits of radioprotection provided by the AA′ fragment, we irradiated mice with 17 Gy and 20 Gy single doses of total body gamma-radiation.
We tested the ability of AA′ to protect mice that were exposed to it. A group of 20 NIH-Swiss mice were subcutaneously injected with 5 μg/mouse (0.2 mg/kg) of AA′. A second injection of a equal dose of AA′ was administered after 21 (10 mice) and 28 days (another 10 mice), with the time elapsed being sufficient for formation of antibodies. The second injection of AA′ was followed by 13 Gy of whole-body gamma irradiation (1 h post-injection).
Repetitive irradiation within a short period of time may be common, for example, in space radiation events and in clinical radiotherapy regimens. We tested the ability of the AA′ flagellin fragment to protect mice from sub-lethal (4 treatments of 3 Gy) and 100% lethal (4 treatments of 4 Gy) regimens of fractionated gamma-irradiation. Fragment AA′ or saline buffer was given to NIH-Swiss female mice before every irradiation (once a day for 4 days). AA′ was administered as described above for single-dose irradiation (5 μg/mouse, given subcutaneously 1 h before irradiation). […]
We have extensively confirmed that AA′ protects NIH-Swiss and ICR mice from radiation. […]

Molecule: AA′n1-129: flagellin variant N-terminal 1-129, C-terminal 402-505, SEQ ID NO: 42
- NF-κB Stimulation (NF-κB [1]): Yes

Molecule: BA′: flagellin fragment (56-177)-Linker-(402-505), SEQ ID NO: 12
- NF-κB Stimulation (NF-κB [1]): Yes
- level of NF-κB translocation, fragments versus flagellin (NF-κB [1]): comparable
- inducing NF-κB translocation (NF-κB [1]): capable of inducing NF-κB translocation

Molecule: AA′n1-163: (1-163)-Linker-(402-505), SEQ ID NO: 34
- induction of NF-κB translocation (NF-κB [2]): induce NF-κB translocation
- level of NF-κB translocation relative to flagellin (NF-κB [2]): comparable to that of flagellin
- NF-κB Stimulation (NF-κB [1]): Yes

Molecule: AA′n54-163: (54-163)-Linker-(402-505), SEQ ID NO: 36
- induction of NF-κB translocation (NF-κB [2]): induce NF-κB translocation
- NF-κB Stimulation (NF-κB [1]): Yes

Molecule: AA′n54-129: flagellin variant N-terminal 54-129, C-terminal 402-505, SEQ ID NO: 44
- NF-κB Stimulation (NF-κB [1]): Yes

Molecule: AA′n1-70: flagellin variant N-terminal 1-70, C-terminal 402-505, SEQ ID NO: 54
- NF-κB Stimulation (NF-κB [1]): No

Molecule: GST-A′: GST-Linker-(402-505), SEQ ID NO: 26
- NF-κB Stimulation (NF-κB [1]): No

Molecule: CA′: flagellin fragment (56-100)-Linker-(402-505), SEQ ID NO: 16
- NF-κB Stimulation (NF-κB [1]): No

Molecule: AA′n54-170: (54-170)-Linker-(402-505), SEQ ID NO: 32
- induction of NF-κB translocation (NF-κB [2]): induce NF-κB translocation
- level of NF-κB translocation relative to flagellin (NF-κB [2]): comparable to that of flagellin
- NF-κB Stimulation (NF-κB [1]): Yes

B1: A: flagellin N-terminus (1-177), SEQ ID NO: 20 (protein)
chain: MRGSHHHHHHGMASMTGGQQMGRDLYDDDDKDPMAQVINTNSLSLLTQNNLNKSQSSLSSAIERLSSGLRINSAKDDAAGQAIANRFTSNIKGLTQASRNANDGISIAQTTEGALNEINNNLQRVRELSVQATNGTNSDSDLKSIQDEIQQRLEEIDRVSNQTQFNGVKVLSQDNQMKIQVGANDGETITIDLQKIDVKSLGLDGFNVNSPG
modifications: Salmonella dublin
- NF-κB Stimulation (NF-κB [1]): No

B2: BB′: flagellin fragment (56-177)-Linker-(402-450), SEQ ID NO: 14 (protein)
chain: MRGSHHHHHHGMASMTGGQQMGRDLYDDDDKDPFTSNIKGLTQASRNANDGISIAQTTEGALNEINNNLQRVRELSVQATNGTNSDSDLKSIQDEIQQRLEEIDRVSNQTQFNGVKVLSQDNQMKIQVGANDGETITIDLQKIDVKSLGLDGFNVNSPGISGGGGGILDSMGTLINEDAAAAKKSTANPLASIDSALSKVDAVRSSLGAIQNRFDSAITNL
modifications: Salmonella dublin
- 30-day survival, 11 Gy ([3]; 1 hour before 11 Gy): 0%
- 30-day survival, 14 Gy ([3]; 1 hour before 14 Gy): 0%
- NF-κB Stimulation (NF-κB [1]): No

B3: CB′: flagellin fragment (56-100)-Linker-(402-450), SEQ ID NO: 18 (protein)
chain: MRGSHHHHHHGMASMTGGQQMGRDLYDDDDKDPFTSNIKGLTQASRNANDGISIAQTTEGALNEINNNLQRVRELSVQATSPGISGGGGGILDSMGTLINEDAAAAKKSTANPLASIDSALSKVDAVRSSLGAIQNRFDSAITNL
modifications: Salmonella dublin
- NF-κB Stimulation (NF-κB [1]): No

B4: AB′n1-70: flagellin variant N-terminal 1-70, C-terminal 402-450, SEQ ID NO: 56 (protein)
chain: MRGSHHHHHHGMASMTGGQQMGRDLYDDDDKDPMAQVINTNSLSLLTQNNLNKSQSSLSSAIERLSSGLRINSAKDDAAGQAIANRFTSNIKGLTQASRNANDIPGISGGGGGILDSMGTLINEDAAAAKKSTANPLASIDSALSKVDAVRSSLGAIQNRFDSAITNL
modifications: Salmonella dublin
- NF-κB Stimulation (NF-κB [1]): No

B5: AB′n1-170: flagellin variant N-terminal 1-170, C-terminal 402-450, SEQ ID NO: 38 (protein)
chain: MRGSHHHHHHGMASMTGGQQMGRDLYDDDDKDPMAQVINTNSLSLLTQNNLNKSQSSLSSAIERLSSGLRINSAKDDAAGQAIANRFTSNIKGLTQASRNANDGISIAQTTEGALNEINNNLQRVRELSVQATNGTNSDSDLKSIQDEIQQRLEEIDRVSNQTQFNGVKVLSQDNQMKIQVGANDGETITIDLQKIDVKSLGLIPGISGGGGGILDSMGTLINEDAAAAKKSTANPLASIDSALSKVDAVRSSLGAIQNRFDSAITNL
modifications: Salmonella dublin
- NF-κB Stimulation (NF-κB [1]): Yes

B6: AB′n1-163: flagellin variant N-terminal 1-163, C-terminal 402-450, SEQ ID NO: 40 (protein)
chain: MRGSHHHHHHGMASMTGGQQMGRDLYDDDDKDPMAQVINTNSLSLLTQNNLNKSQSSLSSAIERLSSGLRINSAKDDAAGQAIANRFTSNIKGLTQASRNANDGISIAQTTEGALNEINNNLQRVRELSVQATNGTNSDSDLKSIQDEIQQRLEEIDRVSNQTQFNGVKVLSQDNQMKIQVGANDGETITIDLQKIIPGISGGGGGILDSMGTLINEDAAAAKKSTANPLASIDSALSKVDAVRSSLGAIQNRFDSAITNL
modifications: Salmonella dublin
- NF-κB Stimulation (NF-κB [1]): Yes

B7: C: flagellin N-terminus (56-100), SEQ ID NO: 24 (protein)
chain: MRGSHHHHHHGMASMTGGQQMGRDLYDDDDKDPFTSNIKGLTQASRNANDGISIAQTTEGALNEINNNLQRVRELSVQATSPG
modifications: Salmonella dublin
- NF-κB Stimulation (NF-κB [1]): No

B8: AB′: flagellin fragment (1-177)-Linker-(402-450), SEQ ID NO: 10 (protein)
chain: MRGSHHHHHHGMASMTGGQQMGRDLYDDDDKDPMAQVINTNSLSLLTQNNLNKSQSSLSSAIERLSSGLRINSAKDDAAGQAIANRFTSNIKGLTQASRNANDGISIAQTTEGALNEINNNLQRVRELSVQATNGTNSDSDLKSIQDEIQQRLEEIDRVSNQTQFNGVKVLSQDNQMKIQVGANDGETITIDLQKIDVKSLGLDGFNVNSPGISGGGGGILDSMGTLINEDAAAAKKSTANPLASIDSALSKVDAVRSSLGAIQNRFDSAITNL
modifications: Salmonella dublin
- NF-κB Stimulation (NF-κB [1]): Yes
- level of NF-κB translocation, fragments versus flagellin (NF-κB [1]): comparable
- inducing NF-κB translocation (NF-κB [1]): capable of inducing NF-κB translocation

B9: B: flagellin N-terminus (56-177), SEQ ID NO: 22 (protein)
chain: MRGSHHHHHHGMASMTGGQQMGRDLYDDDDKDPFTSNIKGLTQASRNANDGISIAQTTEGALNEINNNLQRVRELSVQATNGTNSDSDLKSIQDEIQQRLEEIDRVSNQTQFNGVKVLSQDNQMKIQVGANDGETITIDLQKIDVKSLGLDGFNVNSPG
modifications: Salmonella dublin
- NF-κB Stimulation (NF-κB [1]): No
